Reference: US10703733B2, “MCL-1 inhibitors” (Gilead Sciences, Inc., priority 2018, dated 2020)
Read-outs that look alike come from different tables or passages of the source.

Tests used:
[1] = biological target: MCL-1/Bim interaction (recombinant human MCL-1 protein, residues 171-327; biotinylated human Bim peptide, residues 51-76) (Homo sapiens (Human), UniProt Q07820); test: MCL-1/Bim Binding AlphaLISA Assay; conditions: 0.0625 nM 6xHis-Mcl-1 (171-327), 0.0625 nM biotinylated-Bim peptide
Summary of the method: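 Compounds first sat 1 h with MCL-1 (171-327, 0.0625 nM), followed by 2 h with biotin-Bim 51-76 (0.0625 nM), then sequential 1 h anti-His acceptor and streptavidin donor bead steps; buffer Hepes pH 7.5 with NaCl, Brij 35, DTT, BSA. AlphaScreen signal converted to % inhibition using DMSO (negative) and protein/peptide-free (positive) controls.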

SKBR3 cells = test: SKBR3 Cell Viability Assay (CellTiter Glo); format: cell-based; conditions: CellTiter Glo luminescence, read-out: MCL-1 CV SKBR3 EC50
Summary of the method: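 Viability read as CellTiter Glo luminescence after 72 h of compound exposure at 37° C./5% CO2, using 6,000 SKBR3 cells per well in McCoy 5A with 10% FBS. Percent inhibition scaled between DMSO wells and 10 μM puromycin wells.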

MCL-1/Bim interaction (recombinant human MCL-1 protein, residues 171-327; biotinylated human Bim peptide, residues 51-76), sequence (Q07820 171-327): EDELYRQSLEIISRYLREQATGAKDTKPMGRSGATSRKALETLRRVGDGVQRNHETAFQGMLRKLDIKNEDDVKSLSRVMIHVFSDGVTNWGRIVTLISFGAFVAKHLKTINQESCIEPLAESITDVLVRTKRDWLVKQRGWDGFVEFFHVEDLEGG

SMILES | IC50 [1] [nM] | EC50 (SKBR3 cells; Homo sapiens, SK-BR-3, 72 h) [nM] | EC50 (SKBR3 cells; Homo sapiens, SK-BR-3, 72 hours) [nM] | EC50 (SKBR3 cells; 72 hours) [nM]
CO[C@H]1/C=C/C[C@H](C)C[S@@](=O)(NC(=O)[C@H]2C[C@@H](OC)C2)=NC(=O)c2ccc3c(c2)N(C[C@@H]2CC[C@H]21)C[C@@]1(CCCc2cc(Cl)ccc21)CO3 [Example 127] | 0.085 | 158 | – | –
CO[C@H]1/C=C/C[C@H](C)C[S@@](=O)(NC(=O)N2CC(N3CCN4CCOC[C@@H]4C3)C2)=NC(=O)c2ccc3c(c2)N(C[C@@H]2CC[C@H]21)C[C@@]1(CCCc2cc(Cl)ccc21)CO3 [Example 297] | 0.033 | – | 69 | –
CO[C@H]1/C=C/C[C@H](C)C[S@@](=O)(NC(=O)N[C@@H]2CC23CCOC3)=NC(=O)c2ccc3c(c2)N(C[C@@H]2CC[C@H]21)C[C@@]1(CCCc2cc(Cl)ccc21)CO3 (single isomer, unassigned) [Example 342] | 0.029 | 33.6 | – | –
COC1CN(C(=O)N[S@@]2(=O)=NC(=O)c3ccc4c(c3)N(C[C@@H]3CC[C@H]3[C@@H](O)/C=C/C[C@H](C)C2)C[C@@]2(CCCc3cc(Cl)ccc32)CO4)C1 [Example 266] | 0.085 | 53.8 | – | –
CO[C@H]1/C=C/C[C@H](C)C[S@@](=O)(NC(=O)N2CC(OC(=O)N3CCOCC3)C2)=NC(=O)c2ccc3c(c2)N(C[C@@H]2CC[C@H]21)C[C@@]1(CCCc2cc(Cl)ccc21)CO3 [Example 387] | 0.102 | 162 | – | –
COc1nn(C)cc1C(=O)N[S@@]1(=O)=NC(=O)c2ccc3c(c2)N(C[C@@H]2CC[C@H]2[C@@H](O)/C=C\C[C@H](C)[C@H]1C)C[C@@]1(CCCc2cc(Cl)ccc21)CO3 [Example 343] | 0.019 | 17.3 | – | –
CO[C@H]1/C=C/C[C@H](C)C[S@@](=O)(NC(=O)c2cc3n(c2)C[C@H](C)OC3)=NC(=O)c2ccc3c(c2)N(C[C@@H]2CC[C@H]21)C[C@@]1(CCCc2cc(Cl)ccc21)CO3 [Example 167] | 0.141 | 58.6 | – | –
CO[C@H]1/C=C/CCC[S@@](=O)(NC(=O)Cc2ccnn2C)=NC(=O)c2ccc3c(c2)N(C[C@@H]2CC[C@H]21)C[C@@]1(CCCc2cc(Cl)ccc21)CO3 [Example 29] | 0.6 | 1840 | – | –
CO[C@H]1/C=C/C[C@H](C)C[S@@](=O)(NC(=O)c2cnc(C)nc2)=NC(=O)c2ccc3c(c2)N(C[C@@H]2CC[C@H]21)C[C@@]1(CCCc2cc(Cl)ccc21)CO3 [Example 461] | 0.087 | 151 | – | –
CO[C@H]1/C=C/C[C@H](C)C[S@@](=O)(NC(=O)c2cnn(C(C)C)c2)=NC(=O)c2ccc3c(c2)N(C[C@@H]2CC[C@H]21)C[C@@]1(CCCc2cc(Cl)ccc21)CO3 [Example 123] | 0.071 | 114 | – | –
CCn1cc(C(=O)N[S@@]2(=O)=NC(=O)c3ccc4c(c3)N(C[C@@H]3CC[C@H]3[C@@H](OC)/C=C/C[C@H](C)C2)C[C@@]2(CCCc3cc(Cl)ccc32)CO4)cn1 [Example 134] | 0.072 | 59.6 | – | –
CO[C@H]1/C=C/CCC[S@@](=O)(NC(=O)NCc2ccncc2)=NC(=O)c2ccc3c(c2)N(C[C@@H]2CC[C@H]21)C[C@@]1(CCCc2cc(Cl)ccc21)CO3 [Example 79] | 0.4 | 3030 | – | –
CO[C@H]1/C=C/C[C@H](C)C[S@@](=O)(NC(=O)N2CC(OC(=O)N(C)C)C2)=NC(=O)c2ccc3c(c2)N(C[C@@H]2CC[C@H]21)C[C@@]1(CCCc2cc(Cl)ccc21)CO3 [Example 292] | 0.02 | 45.1 | – | –
COc1nn(C(F)F)cc1C(=O)N[S@@]1(=O)=NC(=O)c2ccc3c(c2)N(C[C@@H]2CC[C@H]2[C@@H](OC)/C=C/C[C@H](C)C1)C[C@@]1(CCCc2cc(Cl)ccc21)CO3 [Example 252] | 0.043 | 82.7 | – | –
CO[C@H]1/C=C/CCC[S@@](=O)(NC(=O)COc2ccnn2C)=NC(=O)c2ccc3c(c2)N(C[C@@H]2CC[C@H]21)C[C@@]1(CCCc2cc(Cl)ccc21)CO3 [Example 100] | 0.2 | 2260 | – | –
COCCCn1cc(C(=O)N[S@@]2(=O)=NC(=O)c3ccc4c(c3)N(C[C@@H]3CC[C@H]3[C@@H](OC)/C=C/C[C@H](C)C2)C[C@@]2(CCCc3cc(Cl)ccc32)CO4)cc1COC [Example 338] | 0.09 | 124 | – | –
CO[C@H]1/C=C/CCC[S@](N)(=O)=NC(=O)c2ccc3c(c2)N(C[C@@H]2CC[C@H]21)C[C@@]1(CCCc2cc(Cl)ccc21)CO3 [Example 6] | 27.3 | – | – | 8730
CO[C@H]1/C=C/C[C@H](C)C[S@@](=O)(NC(=O)NC2COC2)=NC(=O)c2ccc3c(c2)N(C[C@@H]2CC[C@H]21)C[C@@]1(CCCc2cc(Cl)ccc21)CO3 [Example 428] | 0.069 | 165 | – | –
CO[C@H]1/C=C/CCC[S@@](=O)(NC(=O)CCn2ccc(C)n2)=NC(=O)c2ccc3c(c2)N(C[C@@H]2CC[C@H]21)C[C@@]1(CCCc2cc(Cl)ccc21)CO3 [Example 59] | 0.1 | 874 | – | –
CO[C@H]1/C=C/C[C@H](C)C[S@@](=O)(NC(=O)CO[C@H]2CCOC[C@H]2F)=NC(=O)c2ccc3c(c2)N(C[C@@H]2CC[C@H]21)C[C@@]1(CCCc2cc(Cl)ccc21)CO3 [Example 416] | 0.047 | 131 | – | –
COc1nn(C)cc1C(=O)N[S@@]1(=O)=NC(=O)c2ccc3c(c2)N(C[C@@H]2CC[C@H]2[C@@H](O)CCC[C@H](C)C1)C[C@@]1(CCCc2cc(Cl)ccc21)CO3 [Example 280] | 0.044 | 50 | – | –

More lines, in order of falling IC50 [1], values ahead:

IC50 [1] [nM] | EC50 (SKBR3 cells; Homo sapiens, SK-BR-3, 72 h) [nM] | SMILES | EC50 (SKBR3 cells; Homo sapiens, SK-BR-3, 72 hours) [nM] | EC50 (SKBR3 cells; 72 hours) [nM]
1.8 | 4910 | CO[C@H]1/C=C/CCC[S@@](=O)(NC(=O)Cc2cn3ccccc3n2)=NC(=O)c2ccc3c(c2)N(C[C@@H]2CC[C@H]21)C[C@@]1(CCCc2cc(Cl)ccc21)CO3 [Example 86] | – | –
1.72 | 4750 | COc1nn(C)cc1C(=O)N[S@@]1(=O)=NC(=O)c2ccc3c(c2)N(C[C@@H]2CC[C@H]2[C@@H](OC)/C=C/[C@@H](OC)CC1)C[C@@]1(CCCc2cc(Cl)ccc21)CO3 [Example 394] | – | –
0.5 | 855 | CO[C@H]1/C=C/CCC[S@@](=O)(NC(=O)CCc2cc(C)nn2C)=NC(=O)c2ccc3c(c2)N(C[C@@H]2CC[C@H]21)C[C@@]1(CCCc2cc(Cl)ccc21)CO3 [Example 89] | – | –
0.5 | 2060 | CO[C@H]1/C=C/CCC[S@@](=O)(NC(=O)Cc2cnccn2)=NC(=O)c2ccc3c(c2)N(C[C@@H]2CC[C@H]21)C[C@@]1(CCCc2cc(Cl)ccc21)CO3 [Example 20] | – | –
0.301 | 123 | CO[C@H]1/C=C/C[C@H](C)C[S@@](=O)(NC(=O)NC2CC3(C2)CC(F)(F)C3)=NC(=O)c2ccc3c(c2)N(C[C@@H]2CC[C@H]21)C[C@@]1(CCCc2cc(Cl)ccc21)CO3 [Example 437] | – | –
0.133 | 395 | CO[C@H]1/C=C/C[C@H](C)C[S@@](=O)(NC(=O)N[C@@H]2C[C@H]2C)=NC(=O)c2ccc3c(c2)N(C[C@@H]2CC[C@H]21)C[C@@]1(CCCc2cc(Cl)ccc21)CO3 [Example 433] | – | –
0.108 | – | CO[C@H]1/C=C/C[C@H](C)C[S@@](=O)(NC(=O)N[C@H]2C[C@@H]2c2cnn(C)c2)=NC(=O)c2ccc3c(c2)N(C[C@@H]2CC[C@H]21)C[C@@]1(CCCc2cc(Cl)ccc21)CO3 (single isomer, unassigned) [Example 184] | – | 47.2
0.102 | 82.5 | CO[C@H]1/C=C/C[C@H](C)C[S@@](=O)(NC(=O)N[C@@H]2CC[C@H]2OC)=NC(=O)c2ccc3c(c2)N(C[C@@H]2CC[C@H]21)C[C@@]1(CCCc2cc(Cl)ccc21)CO3 [Example 179] | – | –
0.1 | 775 | CO[C@H]1/C=C/CCC[S@@](=O)(NC(=O)CCn2cc(C)cn2)=NC(=O)c2ccc3c(c2)N(C[C@@H]2CC[C@H]21)C[C@@]1(CCCc2cc(Cl)ccc21)CO3 [Example 61] | – | –
0.093 | 721 | CO[C@H]1/C=C/C[C@H](C)C[S@@](=O)(NC(=O)Nc2ncccn2)=NC(=O)c2ccc3c(c2)N(C[C@@H]2CC[C@H]21)C[C@@]1(CCCc2cc(Cl)ccc21)CO3 [Example 111] | – | –
0.083 | 89.7 | COC1CC2(C1)CN(C(=O)N[S@@]1(=O)=NC(=O)c3ccc4c(c3)N(C[C@@H]3CC[C@H]3[C@@H](OC)/C=C/C[C@H](C)C1)C[C@@]1(CCCc3cc(Cl)ccc31)CO4)C2 [Example 257] | – | –
0.058 | 47.5 | COc1nn(C)cc1C(=O)N[S@@]1(=O)=NC(=O)c2ccc3c(c2)N(C[C@@H]2CC[C@H]2[C@@H](OC)/C=C/[C@H](O)[C@H](C)[C@H]1C)C[C@@]1(CCCc2cc(Cl)ccc21)CO3 [Example 374] | – | –
0.054 | 39.7 | CO[C@H]1/C=C/C[C@H](C)C[S@@](=O)(NC(=O)N[C@H]2C[C@](C)(OC)C2)=NC(=O)c2ccc3c(c2)N(C[C@@H]2CC[C@H]21)C[C@@]1(CCCc2cc(Cl)ccc21)CO3 [Example 192] | – | –
0.051 | 111 | CO[C@H]1/C=C/C[C@H](C)C[S@@](=O)(NC(=O)c2ccn(C)c2)=NC(=O)c2ccc3c(c2)N(C[C@@H]2CC[C@H]21)C[C@@]1(CCCc2cc(Cl)ccc21)CO3 [Example 147] | – | –
0.047 | 73.2 | CO[C@H]1/C=C/C[C@H](C)C[S@@](=O)(NC(=O)N[C@H]2CCOC2)=NC(=O)c2ccc3c(c2)N(C[C@@H]2CC[C@H]21)C[C@@]1(CCCc2cc(Cl)ccc21)CO3 [Example 112] | – | –
0.046 | 162 | COCC1(NC(=O)N[S@@]2(=O)=NC(=O)c3ccc4c(c3)N(C[C@@H]3CC[C@H]3[C@@H](OC)/C=C/C[C@H](C)C2)C[C@@]2(CCCc3cc(Cl)ccc32)CO4)CC1 [Example 131] | – | –
